{
  "source": "ChEMBL document CHEMBL5126604",
  "about": "“Design, Synthesis, and Biological Evaluation of Pyrrole-2-carboxamide Derivatives as Mycobacterial Membrane Protein Large 3 Inhibitors for Treating Drug-Resistant Tuberculosis” (J Med Chem, 2022)",
  "key": {"[1]": {"test_system": "Mycobacterium tuberculosis", "assay": "microbe, parasite or virus in culture", "conditions": "Mycobacterium tuberculosis, 14862, 168 h"}, "[2]": {"test_system": "Mycobacterium tuberculosis", "assay": "microbe, parasite or virus in culture", "conditions": "Mycobacterium tuberculosis, 13946, 168 h"}},
  "data": [
    {"smiles": "O=C(NC1C2CC3CC(C2)CC1C3)c1cc(-c2ccc(F)nc2F)c[nH]1", "note": "(stereo unspecified)", "values": [
      {"measurement": "MIC", "setting": "[1]", "value": "< 0.016", "unit": "µg/mL"},
      {"measurement": "MIC", "setting": "[2]", "value": "< 0.016", "unit": "µg/mL"}
    ]},
    {"smiles": "O=C(NC12CC3CC(CC(C3)C1)C2)c1cc(-c2ccc(F)cc2F)c[nH]1", "values": [
      {"measurement": "MIC", "setting": "[1]", "value": "< 0.016", "unit": "µg/mL"},
      {"measurement": "MIC", "setting": "[2]", "value": "< 0.016", "unit": "µg/mL"}
    ]},
    {"smiles": "O=C(NC12CC3CC(CC(C3)C1)C2)c1cc(-c2ccc(F)nc2F)c[nH]1", "values": [
      {"measurement": "MIC", "setting": "[1]", "value": "< 0.016", "unit": "µg/mL"},
      {"measurement": "MIC", "setting": "[2]", "value": "< 0.016", "unit": "µg/mL"}
    ]}
  ]
}
